Tests used:
[1] = target: T1, ATP-binding cassette sub-family C member 3 (Rattus norvegicus, UniProt O88563); experiment: TP_TRANSPORTER: inhibition of E217betaG uptake in membrane vesicles from Mrp3-expressing Sf9 cells; assay type: functional, cell membranes, Membrane vesicle
[2] = target: Multidrug resistance associated protein (Homo sapiens, UniProt Q96QA9); experiment: (§1) TP_TRANSPORTER: inhibition of E217betaG uptake in membrane vesicle from MRP3-expressing Sf9 cells; assay type: functional, cell membranes
[3] = target: T1, ATP-binding cassette sub-family C member 3; experiment: (§2) TP_TRANSPORTER: uptake in membrane vesicles from Mrp3-expressing Sf9 cells; assay type: functional, cell membranes, Membrane vesicle
[4] = target: T1, ATP-binding cassette sub-family C member 3; experiment: as §1; assay type: functional, cell membranes
[5] = substrate: C[C@]12CC[C@@H]3c4ccc(O)cc4CC[C@H]3[C@@H]1CC[C@@H]2O[C@@H]1O[C@H](C(=O)O)[C@@H](O)[C@H](O)[C@H]1O; experiment: as §2; assay type: functional, cell membranes, Membrane vesicle
[6] = substrate: C[C@]12CC[C@@H]3c4ccc(O)cc4CC[C@H]3[C@@H]1CC[C@@H]2O[C@@H]1O[C@H](C(=O)O)[C@@H](O)[C@H](O)[C@H]1O; conditions: Sf9; Membrane vesicle
Description: TP_TRANSPORTER: uptake in membrane vesicle from MRP3-expressing Sf9 cells

Molecule	Ki [1]	Ki [2]	Activity [3]	further results
CN(Cc1cnc2nc(N)nc(N)c2n1)c1ccc(C(=O)N[C@@H](CCC(=O)O)C(=O)O)cc1 [METHOTREXATE]	90 µM	1200 µM		
CNc1nc2c(Cc3cccnc3)c(C)c(O[C@@H]3O[C@H](C(=O)O)[C@@H](O)[C@H](O)[C@H]3O)c(C)c2s1 [E3040 GLUCURONIDE]		5.6 µM	substrate [+]	Ki [4]: 2.6 µM
CCCCC/C=C\C\C=C/C=C/C=C/[C@@H](SC[C@@H](NC(=O)CC[C@H](N)C(=O)O)C(=O)NCC(=O)O)[C@@H](O)CCCC(=O)O [LEUKOTRIEN C4]			substrate [+]	
N[C@@H](CCC(=O)N[C@H](CSc1ccc([N+](=O)[O-])cc1[N+](=O)[O-])C(=O)NCC(=O)O)C(=O)O	83.8 µM	337 µM	substrate [+]	
O=C(O)[C@H]1O[C@@H](OCc2cc(=O)oc3cc(O)ccc23)[C@H](O)[C@@H](O)[C@@H]1O	77 µM	105 µM		
ATP-binding cassette sub-family C member 3 (Rattus norvegicus) (protein) MDRLCGSGELGSKFWDSNLTVYTNTPDLTPCFQNSLLAWVPCIYLWAALPCYLFYLRHHRLGYIVLSCLSRLKTALGVLLWCISWVDLFYSFHGLVHGSSPAPVFFITPLLVGITMLLATLLIQYERLRGVRSSGVLIIFWLLCVICAIIPFRSKILLALAEGKILDPFRFTTFYIYFALVLCAFILSCFQEKPPLFSPENLDTNPCPEASAGFFSRLSFWWFTKLAILGYRRPLEDSDLWSLSEEDCSHKVVQRLLEAWQKQQTQASGPQTAALEPKIAGEDEVLLKARPKTKKPSFLRALVRTFTSSLLMGACFKLIQDLSPSSTHSCSASSSGLFRPHGPYWWGFLLAGLMFVSSTMQTLILHQHYHCIFVMALRIRTAIIGVIYRKALTITNSVKREYTVGEMVNLMSVDAQRFMDVSPFINLLWSAPLQVILAIYFLWQILGPSALAGVAVIVLLIPLNGAVSMKMKTYQVQQMKFKDSRIKLMSEILNGIKVLKLYAWEPTFLEQVEGIRQGELQLLRKGAYLQAISTFIWVCTPFMVTLITLGVYVCVDKNNVLDAEKAFVSLSLFNILKIPLNLLPQLISGMTQTSVSLKRIQDFLNQDELDPQCVERKTISPGRAITIHNGTFSWSKDLPPTLHSINIQIPKGALVAVVGPVGCGKSSLVSALLGEMEKLEGAVSVKGSVAYVPQQAWIQNCTLQENVLFGQPMNPKRYQQALETCALLADLDVLPGGDQTEIGEKGINLSGGQRQRVSLARAVYSDANIFLLDDPLSAVDSHVAKHIFDQVIGPEGVLAGKTRVLVTHGISFLPQTDFIIVLADGQITEMGHYSELLQHDGSFANFLRNYAPDENQEANEGVLQHANEEVLLLEDTLSTHTDLTDTEPAIYEVRKQFMREMSSLSSEGEGQNRPVLKRYTSSLEKEVPATQTKETGALIKEEIAETGNVKLSVYWDYAKSVGLCTTLFICLLYAGQNAVAIGANVWLSAWTNDVEEHGQQNNTSVRLGVYATLGILQGLLVMLSAFTMVVGAIQAARLLHTALLHNQIRAPQSFFDTTPSGRILNRFSKDIYVIHEVLAPTILMLFNSFYTSISTIVVIVASTPLFCVVVLPLAVFYGFVQRFYVATSRQLKRLESVSRSPIFSHFSETVTGTSVIRAYGRVQDFKVLSDAKVDSNQKTTYPYIASNRWLGVHVEFVGNCVVLFSALFAVIGRNSLNPGLVGLSVSYALQVTLSLNWMIRTLSDLESNIIAVERVKEYSKTETEAPWVLESNRAPEGWPRSGVVEFRNYSVRYRPGLELVLKNLTLHVQGGEKVGIVGRTGAGKSSMTLCLFRILEAAEGEIFIDGLNVAHIGLHDLRSQLTIIPQDPILFSGTLRMNLDPFGRYSDEDIWRTLELSHLSAFVSSQPTGLDFQCSEGGDNLSVGQRQLVCLARALLRKSRVLVLDEATAAIDLETDDLIQGTIRTQFEDCTVLTIAHRLNTIMDYNRVLVLDKGVVAEFDSPVNLIAAGGIFYGMAKDAGLA				Km [5]: 33.4 µM
Multidrug resistance associated protein (Homo sapiens), Q96QA9 (protein) MDALCGSGELGSKFWDSNLSVHTENPDLTPCFQNSLLAWVPCIYLWVALPCYLLYLRHHCRGYIILSHLSKLKMVLGVLLWCVSWADLFYSFHGLVHGRAPAPVFFVTPLVVGVTMLLATLLIQYERLQGVQSSGVLIIFWFLCVVCAIVPFRSKILLAKAEGEISDPFRFTTFYIHFALVLSALILACFREKPPFFSAKNVDPNPYPETSAGFLSRLFFWWFTKMAIYGYRHPLEEKDLWSLKEEDRSQMVVQQLLEAWRKQEKQTARHKASAAPGKNASGEDEVLLGARPRPRKPSFLKALLATFGSSFLISACFKLIQDLLSFINPQLLSILIRFISNPMAPSWWGFLVAGLMFLCSMMQSLILQHYYHYIFVTGVKFRTGIMGVIYRKALVITNSVKRASTVGEIVNLMSVDAQRFMDLAPFLNLLWSAPLQIILAIYFLWQNLGPSVLAGVAFMVLLIPLNGAVAVKMRAFQVKQMKLKDSRIKLMSEILNGIKVLKLYAWEPSFLKQVEGIRQGELQLLRTAAYLHTTTTFTWMCSPFLVTLITLWVYVYVDPNNVLDAEKAFVSVSLFNILRLPLNMLPQLISNLTQASVSLKRIQQFLSQEELDPQSVERKTISPGYAITIHSGTFTWAQDLPPTLHSLDIQVPKGALVAVVGPVGCGKSSLVSALLGEMEKLEGKVHMKGSVAYVPQQAWIQNCTLQENVLFGKALNPKRYQQTLEACALLADLEMLPGGDQTEIGEKGINLSGGQRQRVSLARAVYSDADIFLLDDPLSAVDSHVAKHIFDHVIGPEGVLAGKTRVLVTHGISFLPQTDFIIVLADGQVSEMGPYPALLQRNGSFANFLCNYAPDEDQGHLEDSWTALEGAEDKEALLIEDTLSNHTDLTDNDPVTYVVQKQFMRQLSALSSDGEGQGRPVPRRHLGPSEKVQVTEAKADGALTQEEKAAIGTVELSVFWDYAKAVGLCTTLAICLLYVGQSAAAIGANVWLSAWTNDAMADSRQNNTSLRLGVYAALGILQGFLVMLAAMAMAAGGIQAARVLHQALLHNKIRSPQSFFDTTPSGRILNCFSKDIYVVDEVLAPVILMLLNSFFNAISTLVVIMASTPLFTVVILPLAVLYTLVQRFYAATSRQLKRLESVSRSPIYSHFSETVTGASVIRAYNRSRDFEIISDTKVDANQRSCYPYIISNRWLSIGVEFVGNCVVLFAALFAVIGRSSLNPGLVGLSVSYSLQVTFALNWMIRMMSDLESNIVAVERVKEYSKTETEAPWVVEGSRPPEGWPPRGEVEFRNYSVRYRPGLDLVLRDLSLHVHGGEKVGIVGRTGAGKSSMTLCLFRILEAAKGEIRIDGLNVADIGDPILFSGTLRMNLDPFGSYSEEDIWWALELSHLHTFVSSQPAGLDFQCSEGGENLSVGQRQLVCLARALLRKSRILVLDEATAAIDLETDNLIQATIRTQFDTCTVLTIAHRLNTIMDYTRVLVLDKGVVAEFDSPANLIAARGIFYGMARDAGLA				Km [6]: 42.9 µM

— ChEMBL document CHEMBL2073954, “Transport activity of human MRP3 expressed in Sf9 cells: comparative studies with rat MRP3” (Pharm Res, 2002)
